Entries after “also recorded” stand apart in the source; their conditions may differ. Where a name gives a salt, the structure may show the parent alone. Square brackets hold non-standard residues; d marks the D form. Peptide text beside a SMILES is read from it. * marks the point of attachment. Ala(6-iPr-benzothiazol-2-yl) = CC(C)c1ccc2nc(C[C@H](N)C(=O)O)sc2c1; Gly(4-THP) = N[C@H](C(=O)O)C1CCOCC1; Propionyl = CCC(=O)*
What was measured:
NRF2 = assay: Western blotting of NRF2 and NRF2-regulated proteins in THLE2 liver cell line; assay type: cell-based; settings: for accumulation of NRF2 and NQ01 protein / abundance of NRF2 protein (cullin 3 substrate): THLE2 liver cell line; for accumulation of NRF2 and NQ01 protein: 10 μM, different time points; for abundance of NRF2 protein (cullin 3 substrate): dose-range, 24 h, western blotting
Protocol: (§1) A key function of cullin neddylation is to control E3 ubiquitin ligase activity of the cullin complex, which in turn regulates protein turnover in cells. DI-591 (Example 58) was evaluated for its effect on neddylation of 5 different cullins in the THLE2 liver cell line with the data shown in FIG. 1. Immortalized THLE2 liver cell line was treated by a dose-range of DCN1 inhibitor DI-591 or a dose-range of MLN4924 for 24 h. The protein levels of neddylated- and un-neddylated-cullin family proteins and several well-known substrates of cullins were examined by western blotting analysis. GAPDH was used as a loading control. […] Immunohistochemical data confirmed the increased NRF2 protein by Example 58 in liver cells.
NRF2 is a transcriptional factor and a master regulator of antioxidant responses, regulating numerous detoxifying and antioxidant genes, such as the phase II detoxification enzymes heme oxygenase (HO1) and NAD(P)H:quinone oxidoreductase-1 (NQ01) (36). DI-591 (Example 58) was compared to dimethyl fumarate (DMF) for their effect on NRF2 and NQ01 protein levels in the THLE2 liver cell line with DI-591DD included as a control with the data shown in FIG. 3. THLE2 liver cell line was treated by DI-591 at 10 μM, DI-591DD at 10 μM or DMF at 10 μM for different time points.
(§2) Immortalized liver THLE2 (ATCC® CRL-2706™) cell lines was purchased from the ATCC (Rockville, MD). The cell line was maintained in BEGM Bronchial Epithelial Cell Growth Medium from Lonza/Clonetics Corporation (CC3170, Walkersville, MD) supplemented with 10% FBS and pen-strep at 37° C. in a humidified incubator with 5% CO2. Esophageal cancer KYSE140 cell line (ACC 348) was purchased from DSMZ (Braunschweig, Germany). The cell line was maintained RPMI1640 supplemented with 10% FBS and pen-strep at 37° C. in a humidified incubator with 5% CO2.
(§3) Treated cells were lysed by RIPA buffer supplemented with protease inhibitor. The expression level of indicated proteins was examined by western blotting analysis. GAPDH was used as a loading control. Antibodies were purchased: Cullin 1 (sc-11384), Cullin2 (sc-10781), Cullin5 (sc-13014) and Cullin7 (sc-134565) from Santa Cruz Biotech. (Santa Cruz, CA); Cullin 4A (PA5-14542), Cullin 4B (PA5-35239), Cullin9 (PA5-20277), DCN2 (DCUN1D2, PA5-31607) and DCN3 (DCUN1D3, PA5-44000) from ThermoFisher Scientific (Wayne, MI); Cullin 3 (2759), NRF2 (12721), HO-1 (70081), NQ01 (3187), Cyclin E (4129), Bim (2819), Keap1 (8047) and UBC12 (4913) from Cell Signaling Technology (Boston, MA); DCN1 (GWB-E3D700) from GenWay Biotech (San Diego, CA). Results are representative of three independent experiments.

neddylation of cullin 3 = assay: Western blotting of neddylated and un-neddylated cullin 3 in THLE2 liver cell line; assay type: cell-based
Protocol: as §1
(§4) DI-591 (Example 58) was further compared to MLN4924 for their ability to inhibit neddylation of cullin 1 and cullin 3 in the THLE2 liver cell line with the data shown in FIG. 2. THLE2 liver cell line was treated by DI-591 at 10 μM or MLN4924 at 0.3 μM for 5 minutes (5m), 30 minutes (30 m), 2 hours (2h) and 24 hours (24h). […] In comparison, MLN4924 inhibits the neddylation of both cullin 1 and 3.
as §2
(§5) Treated cells were lysed by RIPA buffer supplemented with protease inhibitor. The expression level of indicated proteins was examined by western blotting analysis. GAPDH was used as a loading control. Antibodies were purchased: Cullin 1 (sc-11384), Cullin2 (sc-10781), Cullin5 (sc-13014) and Cullin7 (sc-134565) from Santa Cruz Biotech. […]

Cyclin E, BimEL, CDT1 = assay: Western blotting of Cul-1 and Cul-4A substrates in THLE2 liver cell line; assay type: cell-based; settings: dose-range, 24 h
Protocol: as §1, §2, §3

neddylation of cullin 1 = assay: Western blotting of neddylated and un-neddylated cullin 1 in THLE2 liver cell line; assay type: cell-based; settings: DI-591 at 10 μM or MLN4924 at 0.3 μM, 5 minutes to 24 hours
Protocol: as §4, §2, §5

[1] = tested on: mRNA of NRF2, NQ01 and HO-1; assay: qRT-PCR of NRF2 and NRF2-regulated genes in THLE2 liver cell line; assay type: cell-based; settings: 10 μM, different time points
Source text: FIG. 4 provides qRT-PCR analysis of mRNA levels of NRF2 and NRF2-regulated genes in the THLE2 liver cell line. […] The relative mRNA levels of NRF2, NQ01 and HO-1 were examined by quantitative real-time RT-PCR assay.

DCN1 [2] = biological target: T1, DCN1 (Homo sapiens (Human), UniProt Q96GG9); assay: FP protein saturation experiment (Kd of fluorescent probe); settings: fluorescein-labeled probe; read-out: Binding affinity to DCN1, Kd
Protocol: The Fluorescence Polarization (FP) competitive binding assays were performed to accurately determine the binding affinities of our DCN1 inhibitors. A novel FAM labeled fluorescent probe compound (46) was designed and synthesized based on one of our potent small molecule DCN1 inhibitors. […] Serial dilutions of proteins were mixed with 46 to a final volume of 200 μl in the assay buffer (100 mM phosphate buffer, pH=6.5, with 0.02% Tween-20 and 2% DMSO). Final probe concentration was 5 nM for both assays. Plates were incubated at room temperature for 30 minutes with gentle shaking to assure equilibrium. FP values in millipolarization units (mP) were measured using the Infinite M-1000 plate reader (Tecan U.S., Research Triangle Park, NC) in Microfluor 1 96-well, black, round-bottom plates (Thermo Scientific, Waltham, MA) at an excitation wavelength of 485 nm and an emission wavelength of 530 nm.
Human DCN1 (residues 58-259) were cloned into a pDEST17 plasmid containing an N-terminal His6 tag. DCN2 (residues 62-259), DCN3 (residues 86-304), DCN4 (residues 102-292) and DCN5 (residues 47-237) were cloned into an N-terminal His6-TEV expression vector. Pure proteins were derived from the same expression and purification protocols. […]

DCN1 [3] = biological target: T1, DCN1; assay: Competitive FP binding assay; settings: read-out: Binding affinity to DCN1 (IC50 (nM))
Summary of the method: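 FP competition with DCN1 in 100 mM phosphate pH 6.5, 0.02% Tween-20, 2% DMSO, probe 5 nM final. Equilibrated 30 min at room temperature with shaking. DCN1 was His6-tagged (uncleaved), expressed in E. coli Rosetta2 and purified by Ni-NTA and gel filtration.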

[4] = THLE2, DI-591 at 10 μM or MLN4924 at 0.3 μM, 5 minutes to 24 hours

T1 sequence (Q96GG9 58-259): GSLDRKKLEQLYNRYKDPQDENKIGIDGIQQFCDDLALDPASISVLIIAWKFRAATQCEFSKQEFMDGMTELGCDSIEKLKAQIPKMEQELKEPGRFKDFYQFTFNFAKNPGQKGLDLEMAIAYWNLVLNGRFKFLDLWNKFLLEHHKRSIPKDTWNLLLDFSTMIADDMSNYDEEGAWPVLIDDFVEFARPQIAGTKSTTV

Structure (SMILES)	accumulation of NRF2 and NQ01 protein (NRF2)	neddylation of cullin 3 (neddylation of cullin 3; [4])	protein levels of Cyclin E, BimEL and CDT1 (substrates of Cul-1 and Cul-4A) (Cyclin E, BimEL, CDT1)	abundance of NRF2 protein (cullin 3 substrate) (NRF2)	neddylation of cullin 1 (neddylation of cullin 1)	mRNA level of NRF2 [1]	mRNA levels of NQ01 and HO1 (NRF2-regulated genes) [1]	other results
COC(=O)/C=C/C(=O)OC [Dimethyl fumarate, dimethyl fumarate, reference compound]	stimulates the accumulation	–	–	–	–	–	–	accumulation of NRF2 and NQ01 protein (NRF2; listed as dimethyl fumarate): stimulate the accumulation
CCC(=O)N[C@@H](Cc1nc2ccc(C(C)C)cc2s1)C(=O)N[C@H](CNC(=O)CCN1CCOCC1)C1CCCCC1 [Example 58, (S)—N—((S)-1-cyclohexyl-2-(3-morpholinopropanamido)ethyl)-3-(6-isopropylbenzo[d]thiazol-2-yl)-2-propionamidopropanamide]	stimulate the accumulation	rapidly inhibits	no or minimal effect	induces upregulation; also recorded: selectively increased	little effect	no effect	upregulates; also recorded: clearly increases	neddylation of cullin 3 (neddylation of cullin 3; THLE2 liver cell line, dose-range, 24 h): selectively and dose-dependently inhibits; NRF2 protein, immunohistochemical data (NRF2; liver cells): increased
CCC(=O)N[C@H](Cc1nc2ccc(C(C)C)cc2s1)C(=O)N[C@@H](CNC(=O)CCN1CCOCC1)C1CCCCC1 [Example 123, (R)—N—((R)-1-cyclohexyl-2-(3-morpholinopropanamido)ethyl)-3-(6-isopropylbenzo[d]thiazol-2-yl)-2-propionamidopropanamide]	not	–	no effect	no effect	–	no effect	not	–
CCC(=O)N[C@@H](Cc1nc2ccc(C(C)C)cc2s1)C(=O)N[C@H](CNC(=O)C1CCN(CCOCCOCCOCCNC(=O)c2ccc3c(c2)C(=O)OC32c3ccc(O)cc3Oc3cc(O)ccc32)CC1)C1CCCCC1 [Example 127, N—((S)-2-cyclohexyl-2-((S)-3-(6-isopropylbenzo[d]thiazol-2-yl)-2-propionamidopropanamido)ethyl)-1-(1-(3′,6′-dihydroxy-3-oxo-3H-spiro [isobenzofuran-1,9′-xanthen]-5-yl)-1-oxo-5,8,11-trioxa-2-azatridecan-13-yl)piperidine-4-carboxamide]	–	–	–	–	–	–	–	Kd (DCN1 [2]): 21.9 nM
CCC(=O)N[C@@H](Cc1nc2ccc(C(C)C)cc2s1)C(=O)N[C@H](C(=O)N[C@@H](CCCCN)C(=O)N[C@@H](CC(C)C)C(N)=O)C1CCOCC1 [Example 2287] (Propionyl-[Ala(6-iPr-benzothiazol-2-yl)][Gly(4-THP)]KL-NH2)	–	–	–	–	–	–	–	IC50 (DCN1 [3]): 280 nM
NS(=O)(=O)OC[C@@H]1C[C@@H](n2ccc3c(N[C@H]4CCc5ccccc54)ncnc32)C[C@@H]1O [MLN4924, reference compound]	–	inhibits	induces accumulation	induces accumulation	inhibits	–	–	–
